Columns and labels:
Assay in all cases: Testing of the Ability of Compounds to Inhibit VEGFR and EGFR Kinase
[1] = molecular target: Epidermal growth factor receptor (Homo sapiens, UniProt P00533)
Description: (§1) This assay directly monitored the ability of compounds to inhibit kinase phosphorylation by measuring non-phosphorylated and phosphorylated substrates in kinase reactions by using Mobility Shift Assays/IMAP™ analysis. Test Protocol and Procedures: Add the kinase and DTT to 1× kinase buffer to form a 2.5× kinase solution; transfer 10 μL of 2.5× kinase solution to a 384-well reaction plate and add 1× kinase buffer to negative control wells. Incubate the plate for 10 min at room temperature; add FAM-labeled peptides, MgCl2, ATP and other reagents to 1× kinase buffer to form a 2.5× substrate solution; transfer 10 μL of the above 2.5× substrate solution to the 384-well reaction plate; incubate the plate at 28° C. for different times,and add 25 μL of stop solution to the 384-well reaction plate to stop the reaction. Read the conversion ratio data on CaliperEZ Reader II.

[2] = molecular target: Vascular endothelial growth factor receptor 1 (Homo sapiens, UniProt P17948)
Description: as §1

[3] = molecular target: Vascular endothelial growth factor receptor 3 (Homo sapiens, UniProt P35916)
Description: as §1

Chain of Epidermal growth factor receptor (P00533 whole entry): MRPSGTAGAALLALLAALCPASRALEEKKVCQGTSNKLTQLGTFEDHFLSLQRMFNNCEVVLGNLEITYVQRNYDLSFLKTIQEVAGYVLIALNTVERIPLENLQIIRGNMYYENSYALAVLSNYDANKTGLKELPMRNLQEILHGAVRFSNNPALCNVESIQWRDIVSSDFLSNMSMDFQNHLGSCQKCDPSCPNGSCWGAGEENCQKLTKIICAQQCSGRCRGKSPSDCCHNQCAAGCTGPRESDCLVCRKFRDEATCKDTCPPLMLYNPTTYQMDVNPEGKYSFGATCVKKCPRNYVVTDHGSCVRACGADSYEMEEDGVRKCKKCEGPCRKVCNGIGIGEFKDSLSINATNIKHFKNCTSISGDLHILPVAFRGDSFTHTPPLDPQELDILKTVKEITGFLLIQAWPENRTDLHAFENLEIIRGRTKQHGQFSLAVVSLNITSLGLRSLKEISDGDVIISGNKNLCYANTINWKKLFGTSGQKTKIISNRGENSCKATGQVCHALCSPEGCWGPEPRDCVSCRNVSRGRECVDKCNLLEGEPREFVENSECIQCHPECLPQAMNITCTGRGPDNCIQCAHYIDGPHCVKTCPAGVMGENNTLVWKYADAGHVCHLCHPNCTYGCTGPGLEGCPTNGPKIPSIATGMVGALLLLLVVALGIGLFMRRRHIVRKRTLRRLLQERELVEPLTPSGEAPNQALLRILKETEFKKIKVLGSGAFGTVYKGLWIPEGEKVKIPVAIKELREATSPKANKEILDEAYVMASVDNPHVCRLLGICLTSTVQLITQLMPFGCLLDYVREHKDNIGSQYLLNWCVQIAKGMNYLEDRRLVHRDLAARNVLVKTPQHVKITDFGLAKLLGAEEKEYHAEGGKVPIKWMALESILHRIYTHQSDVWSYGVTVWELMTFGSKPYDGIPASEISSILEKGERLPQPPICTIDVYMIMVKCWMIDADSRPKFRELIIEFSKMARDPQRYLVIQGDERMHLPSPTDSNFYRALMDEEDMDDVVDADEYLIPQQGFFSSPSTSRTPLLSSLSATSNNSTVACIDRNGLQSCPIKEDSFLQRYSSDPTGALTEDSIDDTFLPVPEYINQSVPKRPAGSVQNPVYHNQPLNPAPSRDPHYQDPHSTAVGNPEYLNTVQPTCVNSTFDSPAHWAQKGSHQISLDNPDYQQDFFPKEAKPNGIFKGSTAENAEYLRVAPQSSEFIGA
Chain of Vascular endothelial growth factor receptor 1 (P17948 whole entry): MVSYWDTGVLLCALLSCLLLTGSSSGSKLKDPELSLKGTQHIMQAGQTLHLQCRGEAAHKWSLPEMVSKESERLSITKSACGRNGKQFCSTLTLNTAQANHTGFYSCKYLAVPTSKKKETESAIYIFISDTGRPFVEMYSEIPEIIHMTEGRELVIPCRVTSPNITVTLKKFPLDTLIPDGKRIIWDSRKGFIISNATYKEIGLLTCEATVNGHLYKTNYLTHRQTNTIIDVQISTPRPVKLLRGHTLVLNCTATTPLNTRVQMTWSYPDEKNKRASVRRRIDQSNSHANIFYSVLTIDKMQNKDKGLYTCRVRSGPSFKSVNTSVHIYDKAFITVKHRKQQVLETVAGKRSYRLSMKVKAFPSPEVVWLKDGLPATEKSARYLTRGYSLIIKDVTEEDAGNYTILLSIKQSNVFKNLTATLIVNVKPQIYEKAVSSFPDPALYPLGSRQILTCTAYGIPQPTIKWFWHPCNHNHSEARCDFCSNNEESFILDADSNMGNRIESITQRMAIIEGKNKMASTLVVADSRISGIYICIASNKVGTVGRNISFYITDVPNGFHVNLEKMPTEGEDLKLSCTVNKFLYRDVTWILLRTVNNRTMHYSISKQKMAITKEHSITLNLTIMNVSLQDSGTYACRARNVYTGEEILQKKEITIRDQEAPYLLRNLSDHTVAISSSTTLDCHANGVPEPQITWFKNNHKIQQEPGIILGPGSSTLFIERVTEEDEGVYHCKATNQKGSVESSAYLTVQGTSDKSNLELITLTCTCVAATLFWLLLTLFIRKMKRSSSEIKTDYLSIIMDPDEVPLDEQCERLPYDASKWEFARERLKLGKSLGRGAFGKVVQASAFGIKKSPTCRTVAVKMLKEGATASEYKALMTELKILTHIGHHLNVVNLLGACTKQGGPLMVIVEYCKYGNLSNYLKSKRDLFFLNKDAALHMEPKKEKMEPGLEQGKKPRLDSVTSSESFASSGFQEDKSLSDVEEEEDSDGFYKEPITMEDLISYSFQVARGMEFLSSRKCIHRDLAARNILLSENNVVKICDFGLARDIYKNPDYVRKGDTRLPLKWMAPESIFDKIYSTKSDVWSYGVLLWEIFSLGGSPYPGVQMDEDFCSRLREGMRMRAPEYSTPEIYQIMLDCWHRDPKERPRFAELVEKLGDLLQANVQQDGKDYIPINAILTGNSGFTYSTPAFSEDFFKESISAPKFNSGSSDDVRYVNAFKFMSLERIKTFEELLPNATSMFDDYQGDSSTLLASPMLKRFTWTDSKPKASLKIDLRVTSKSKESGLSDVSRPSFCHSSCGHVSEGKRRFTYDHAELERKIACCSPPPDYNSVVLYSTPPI
Chain of Vascular endothelial growth factor receptor 3 (P35916 whole entry): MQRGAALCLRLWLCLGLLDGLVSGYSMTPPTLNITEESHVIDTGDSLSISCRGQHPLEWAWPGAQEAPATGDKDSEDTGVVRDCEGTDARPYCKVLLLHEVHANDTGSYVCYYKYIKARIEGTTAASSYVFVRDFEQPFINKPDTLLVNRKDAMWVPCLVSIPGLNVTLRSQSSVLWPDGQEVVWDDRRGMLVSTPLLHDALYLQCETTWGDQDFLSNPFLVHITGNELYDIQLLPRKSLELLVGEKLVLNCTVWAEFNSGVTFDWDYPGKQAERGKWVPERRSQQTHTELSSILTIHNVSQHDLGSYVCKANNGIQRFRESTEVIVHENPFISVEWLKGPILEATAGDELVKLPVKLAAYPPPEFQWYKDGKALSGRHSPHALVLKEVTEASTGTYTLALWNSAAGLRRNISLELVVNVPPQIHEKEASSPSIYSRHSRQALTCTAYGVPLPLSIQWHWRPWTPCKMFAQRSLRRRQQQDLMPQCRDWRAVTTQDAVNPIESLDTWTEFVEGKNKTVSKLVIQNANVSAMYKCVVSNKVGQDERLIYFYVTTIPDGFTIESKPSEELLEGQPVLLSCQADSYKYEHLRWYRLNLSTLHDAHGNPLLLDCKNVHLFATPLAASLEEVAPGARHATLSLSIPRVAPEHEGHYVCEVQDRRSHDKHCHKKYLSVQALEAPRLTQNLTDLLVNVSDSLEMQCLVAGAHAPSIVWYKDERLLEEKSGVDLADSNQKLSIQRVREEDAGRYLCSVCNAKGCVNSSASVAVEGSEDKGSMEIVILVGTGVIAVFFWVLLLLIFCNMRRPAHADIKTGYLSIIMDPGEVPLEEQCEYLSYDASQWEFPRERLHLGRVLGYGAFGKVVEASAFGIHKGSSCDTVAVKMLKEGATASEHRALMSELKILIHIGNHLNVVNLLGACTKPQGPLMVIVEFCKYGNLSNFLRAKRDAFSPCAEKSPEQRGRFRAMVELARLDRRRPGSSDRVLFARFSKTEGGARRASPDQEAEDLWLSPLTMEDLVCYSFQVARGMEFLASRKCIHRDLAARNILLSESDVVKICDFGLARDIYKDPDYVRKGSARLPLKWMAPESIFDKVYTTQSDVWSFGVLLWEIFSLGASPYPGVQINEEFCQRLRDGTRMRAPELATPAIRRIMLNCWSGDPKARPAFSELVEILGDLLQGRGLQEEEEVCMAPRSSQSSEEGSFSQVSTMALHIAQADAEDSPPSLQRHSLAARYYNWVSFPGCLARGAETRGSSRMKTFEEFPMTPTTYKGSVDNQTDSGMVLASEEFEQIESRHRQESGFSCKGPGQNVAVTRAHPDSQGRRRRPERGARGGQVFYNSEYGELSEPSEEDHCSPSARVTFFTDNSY

IC50 [1]: in the range around 33000 nM
IC50 [2]: 1 to 10 nM
IC50 [3]: 10 to 100 nM
Compound: NC(=O)c1ccccc1Sc1ccc2c(/C=C/c3cnn(CCCN4CCCC4)c3)n[nH]c2c1 [US20260049071, No. I-44]

From BindingDB's records for patent US20260049071 (Beyang Therapeutics Co., 2026)
